In the NIST ThermoML archive (doi:10.1021/je700288s):

Assay: mn = molality of the nth substance listed, in mol/kg
Settings: 101 kPa, Liquid; for speed of sound: Sing-around technique in a fixed-path interferometer; for mass density: Vibrating tube method

O=C([O-])CC(O)(CC(=O)O)C(=O)O.[K+] [potassium dihydrogen citrate] + O
Settings | mass density [kg/m3] | speed of sound [m/s]
283.15 K, m1 = 0.0063 | 1000.47 | 1448.8
283.15 K, m1 = 0.0186 | 1001.97 | 1450.1
283.15 K, m1 = 0.0314 | 1003.53 | 1451.5
283.15 K, m1 = 0.0407 | 1004.65 | 1452.5
283.15 K, m1 = 0.0561 | 1006.52 | 1454.2
283.15 K, m1 = 0.0574 | 1006.67 | 1454.3
283.15 K, m1 = 0.0868 | 1010.19 | 1457.2
283.15 K, m1 = 0.0905 | 1010.65 | 1457.9
283.15 K, m1 = 0.1399 | 1016.4 | 1462.9
283.15 K, m1 = 0.1655 | 1019.36 | 1465.4
283.15 K, m1 = 0.284 | 1032.79 | 1477
283.15 K, m1 = 0.396 | 1044.96 | 1487.4
283.15 K, m1 = 0.4766 | 1053.37 | 1494.6
283.15 K, m1 = 0.5861 | 1064.69 | 1504.1
283.15 K, m1 = 0.5922 | 1065.27 | 1504.7
283.15 K, m1 = 0.7578 | 1081.71 | 1518.5
288.15 K, m1 = 0.0063 | 999.861 | 1466.9
288.15 K, m1 = 0.0186 | 1001.34 | 1468.2
288.15 K, m1 = 0.0314 | 1002.87 | 1469.5
288.15 K, m1 = 0.0407 | 1003.98 | 1470.4
288.15 K, m1 = 0.0561 | 1005.82 | 1472
288.15 K, m1 = 0.0574 | 1005.97 | 1472.1
288.15 K, m1 = 0.0868 | 1009.45 | 1475
288.15 K, m1 = 0.0905 | 1009.9 | 1475.4
288.15 K, m1 = 0.1399 | 1015.58 | 1480.1
288.15 K, m1 = 0.1655 | 1018.5 | 1482.5
288.15 K, m1 = 0.284 | 1031.76 | 1493.4
288.15 K, m1 = 0.396 | 1043.8 | 1503.1
288.15 K, m1 = 0.4766 | 1052.13 | 1509.8
288.15 K, m1 = 0.5861 | 1063.34 | 1518.9
288.15 K, m1 = 0.5922 | 1063.9 | 1519.4
288.15 K, m1 = 0.7578 | 1080.19 | 1532.5
293.15 K, m1 = 0.0063 | 998.956 | 1483.1
293.15 K, m1 = 0.0186 | 1000.41 | 1484.3
293.15 K, m1 = 0.0314 | 1001.93 | 1485.5
293.15 K, m1 = 0.0407 | 1003.03 | 1486.4
293.15 K, m1 = 0.0561 | 1004.84 | 1487.9
293.15 K, m1 = 0.0574 | 1004.99 | 1488
293.15 K, m1 = 0.0868 | 1008.42 | 1490.7
293.15 K, m1 = 0.0905 | 1008.87 | 1491
293.15 K, m1 = 0.1399 | 1014.48 | 1495.5
293.15 K, m1 = 0.1655 | 1017.37 | 1497.7
293.15 K, m1 = 0.284 | 1030.49 | 1507.8
293.15 K, m1 = 0.396 | 1042.41 | 1517
293.15 K, m1 = 0.4766 | 1050.65 | 1523.3
293.15 K, m1 = 0.5861 | 1061.76 | 1531.8
293.15 K, m1 = 0.5922 | 1062.33 | 1532.3
293.15 K, m1 = 0.7578 | 1078.48 | 1544.7
298.15 K, m1 = 0.0063 | 997.788 | 1497.3
298.15 K, m1 = 0.0186 | 999.232 | 1498.5
298.15 K, m1 = 0.0314 | 1000.73 | 1499.6
298.15 K, m1 = 0.0407 | 1001.82 | 1500.4
298.15 K, m1 = 0.0561 | 1003.61 | 1501.8
298.15 K, m1 = 0.0574 | 1003.75 | 1501.9
298.15 K, m1 = 0.0868 | 1007.15 | 1504.4
298.15 K, m1 = 0.0905 | 1007.6 | 1504.7
298.15 K, m1 = 0.1399 | 1013.15 | 1508.8
298.15 K, m1 = 0.1655 | 1016 | 1510.9
298.15 K, m1 = 0.284 | 1029 | 1520.5
298.15 K, m1 = 0.396 | 1040.81 | 1529
298.15 K, m1 = 0.4766 | 1048.98 | 1535
298.15 K, m1 = 0.5861 | 1060 | 1543
298.15 K, m1 = 0.5922 | 1060.56 | 1543.5
298.15 K, m1 = 0.7578 | 1076.59 | 1555.2
303.15 K, m1 = 0.0063 | 996.385 | 1509.7
303.15 K, m1 = 0.0186 | 997.809 | 1510.7
303.15 K, m1 = 0.0314 | 999.297 | 1511.8
303.15 K, m1 = 0.0407 | 1000.37 | 1512.5
303.15 K, m1 = 0.0561 | 1002.15 | 1513.8
303.15 K, m1 = 0.0574 | 1002.29 | 1513.9
303.15 K, m1 = 0.0868 | 1005.65 | 1516.3
303.15 K, m1 = 0.0905 | 1006.09 | 1516.6
303.15 K, m1 = 0.1399 | 1011.59 | 1520.5
303.15 K, m1 = 0.1655 | 1014.43 | 1522.4
303.15 K, m1 = 0.284 | 1027.31 | 1531.4
303.15 K, m1 = 0.396 | 1039.02 | 1539.4
303.15 K, m1 = 0.4766 | 1047.12 | 1545
303.15 K, m1 = 0.5861 | 1058.06 | 1552.6
303.15 K, m1 = 0.5922 | 1058.61 | 1553
303.15 K, m1 = 0.7578 | 1074.53 | 1564.2
308.15 K, m1 = 0.0063 | 994.762 | 1520.3
308.15 K, m1 = 0.0186 | 996.176 | 1521.3
308.15 K, m1 = 0.0314 | 997.649 | 1522.3
308.15 K, m1 = 0.0407 | 998.709 | 1523
308.15 K, m1 = 0.0561 | 1000.47 | 1524.2
308.15 K, m1 = 0.0574 | 1000.61 | 1524.3
308.15 K, m1 = 0.0868 | 1003.95 | 1526.5
308.15 K, m1 = 0.0905 | 1004.38 | 1526.8
308.15 K, m1 = 0.1399 | 1009.84 | 1530.4
308.15 K, m1 = 0.1655 | 1012.65 | 1532.3
308.15 K, m1 = 0.284 | 1025.42 | 1540.7
308.15 K, m1 = 0.396 | 1037.05 | 1548.2
308.15 K, m1 = 0.4766 | 1045.1 | 1553.5
308.15 K, m1 = 0.5861 | 1055.95 | 1560.7
308.15 K, m1 = 0.5922 | 1056.5 | 1561.1
308.15 K, m1 = 0.7578 | 1072.31 | 1571.6
